Laboratory results taken from patent US11857531B2, “Combination mast cell inhibition for treatment of BPH/LUTS” (Northwestern University, priority 2020, dated 2024).
Counter-ions that a name gives are not always drawn.

Tested on: IL-4, IL-13, STAT-6, IFNγ, IL-17a, IL-10 mRNA in prostates of CP1 infected mice
Experiment: qPCR for cytokine transcripts in prostates
Type: in vivo, C57BL/6 mice
Conditions: late, day 35 post CP1 infection; single drug or combination; CrS 0.5 mg/kg, CeHCl 2.5 mg/kg i.p. daily 10 days
Protocol: The prostates were harvested from mice after euthanizing as described previously (32). Depending on the experimental design, each prostate sample (separated by lobes) were either fixed in 10% formalin or frozen at −80° C. in TRIzol™ reagent (Life Technologies Corporation, Grand Island, NY, USA), or frozen at −80° C. in 1×RIPA (Santa Cruz Biotechnology, Dallas, TX, USA) containing complete-EDTA protease inhibitor cocktail and phosSTOP phosphatase inhibitor (Millipore-Sigma, Burlington, MA, USA), or processed for tissue digestion for flow cytometry. Formalin samples were further processed and embedded in paraffin. The formalin-fixed paraffin-embedded (FFPE) samples were then sectioned (5 μm sections) and mounted on glass slides for staining. […] Following voiding behavior testing on days 14 or 35 [“early treatment” or “late treatment” groups respectively], mice were euthanized and tissues were prepared as described above. Total RNA was isolated using TRIzol™ reagent (Life Technologies Corporation, Grand Island, NY, USA), and cDNA synthesis, starting with 1 μg of total RNA, was performed with random hexamers using High-Capacity cDNA Reverse Transcription Kit (Life Technologies Corporation, Grand Island, NY, USA) per the manufacturer's instructions. Primers for quantitative PCR (qPCR) were created for the RNA of interest using the NIH online primer blast tool. Reverse Transcription-Quantitative Polymerase Chain Reaction (RT-qPCR) reactions were performed using SsoAdvanced™ universal SYBR® green (Bio-Rad, Hercules, CA, USA) and run on the CFX Connect (Bio-Rad, Hercules, CA, USA) platform. A full table of primer sequences is included in Table 1. The data were analyzed by the 2^−ΔΔCT method (38), and normalized to GAPDH as the housekeeping gene. The data are represented as fold change normalized to the average expression of the gene of interest in their respective control group.

O=C([O-])c1cc(=O)c2c(OCC(O)COc3cccc4oc(C(=O)[O-])cc(=O)c34)cccc2o1.[Na+].[Na+] [CrS, cromolyn sodium]
IL-4 gene expression in prostates of CP1-infected mice (FIG. 12): reduced the gene expression levels of IL-4 and IL-13 to negligible levels | IL-13 gene expression in prostates of CP1-infected mice (FIG. 12): reduced the gene expression levels of IL-4 and IL-13 to negligible levels

O=C(O)COCCN1CCN(C(c2ccccc2)c2ccc(Cl)cc2)CC1 (stereo not shown) [CeHCl, cetirizine di-hydrochloride]
IL-4 gene expression in prostates of CP1-infected mice (FIG. 12): reduced the gene expression levels of IL-4 and IL-13 to a modest but non-significant levels | IL-13 gene expression in prostates of CP1-infected mice (FIG. 12): reduced the gene expression levels of IL-4 and IL-13 to a modest but non-significant levels
